Assays:
[1] = DRUGMATRIX: Potassium Channel [KATP] radioligand binding (ligand: [3H] Glyburide); format: cell membranes, Membrane; settings: hit-t15; Not Active = under 50% inhibition at 10 µM
[2] = DRUGMATRIX: Glutamate, AMPA radioligand binding (ligand: [3H] AMPA); format: cell membranes, Rattus norvegicus, Wistar, Cerebral cortex, Membrane; settings: Not Active = under 50% inhibition at 10 µM
Progesterone receptor = target: T1, Progesterone receptor (Bos taurus, UniProt Q690N0); experiment: DRUGMATRIX: Progesterone radioligand binding (ligand: [3H] R-5020); format: tissue-based, Uterus; settings: Not Active = under 50% inhibition at 10 µM
T1 sequence (Q690N0 whole entry): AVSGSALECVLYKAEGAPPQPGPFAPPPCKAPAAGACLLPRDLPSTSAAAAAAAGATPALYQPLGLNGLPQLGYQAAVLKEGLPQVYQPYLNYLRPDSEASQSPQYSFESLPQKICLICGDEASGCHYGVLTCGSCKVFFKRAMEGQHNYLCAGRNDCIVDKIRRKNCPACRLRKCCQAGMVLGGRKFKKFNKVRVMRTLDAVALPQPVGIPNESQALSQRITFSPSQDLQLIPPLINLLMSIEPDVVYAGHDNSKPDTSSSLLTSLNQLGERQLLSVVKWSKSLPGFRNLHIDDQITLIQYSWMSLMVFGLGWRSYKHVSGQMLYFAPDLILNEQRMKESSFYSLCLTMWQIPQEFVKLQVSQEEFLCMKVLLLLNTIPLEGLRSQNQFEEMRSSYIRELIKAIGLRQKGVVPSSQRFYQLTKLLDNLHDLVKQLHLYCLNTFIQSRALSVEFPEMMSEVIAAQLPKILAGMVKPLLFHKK

[3] = target: T2, 5-hydroxytryptamine receptor 1A (Rattus norvegicus, UniProt P19327); format: cell membranes, CHO-K1, Membrane; also: in other assays of this panel Not Active means under 50% inhibition at 10 µM
T2 sequence (P19327 whole entry): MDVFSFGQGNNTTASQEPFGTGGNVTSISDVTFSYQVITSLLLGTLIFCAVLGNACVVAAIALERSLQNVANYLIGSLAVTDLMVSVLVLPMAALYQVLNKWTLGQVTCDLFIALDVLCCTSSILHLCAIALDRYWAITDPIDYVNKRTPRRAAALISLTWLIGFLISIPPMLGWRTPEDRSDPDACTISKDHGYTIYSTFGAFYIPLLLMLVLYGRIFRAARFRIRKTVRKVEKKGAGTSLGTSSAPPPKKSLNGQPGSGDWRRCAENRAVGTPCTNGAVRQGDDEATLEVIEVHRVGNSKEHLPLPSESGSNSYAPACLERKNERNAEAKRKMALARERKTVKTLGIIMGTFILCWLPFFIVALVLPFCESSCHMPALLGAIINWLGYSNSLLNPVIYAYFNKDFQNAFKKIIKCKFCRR

[4] = target: C-C chemokine receptor type 5 (Homo sapiens, UniProt P51681); format: cell membranes, Membrane; settings: hek293; also: in other assays of this panel Not Active means under 50% inhibition at 10 µM
Thromboxane-A synthase = target: T3, Thromboxane-A synthase (Homo sapiens, UniProt P24557); experiment: biochemical; format: tissue-based, Platelet;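 also: enzyme inhibition assay with PGH2 supplied as substrate; in other assays of this panel Not Active means under 50% inhibition at 10 µM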
T3 sequence (P24557 whole entry): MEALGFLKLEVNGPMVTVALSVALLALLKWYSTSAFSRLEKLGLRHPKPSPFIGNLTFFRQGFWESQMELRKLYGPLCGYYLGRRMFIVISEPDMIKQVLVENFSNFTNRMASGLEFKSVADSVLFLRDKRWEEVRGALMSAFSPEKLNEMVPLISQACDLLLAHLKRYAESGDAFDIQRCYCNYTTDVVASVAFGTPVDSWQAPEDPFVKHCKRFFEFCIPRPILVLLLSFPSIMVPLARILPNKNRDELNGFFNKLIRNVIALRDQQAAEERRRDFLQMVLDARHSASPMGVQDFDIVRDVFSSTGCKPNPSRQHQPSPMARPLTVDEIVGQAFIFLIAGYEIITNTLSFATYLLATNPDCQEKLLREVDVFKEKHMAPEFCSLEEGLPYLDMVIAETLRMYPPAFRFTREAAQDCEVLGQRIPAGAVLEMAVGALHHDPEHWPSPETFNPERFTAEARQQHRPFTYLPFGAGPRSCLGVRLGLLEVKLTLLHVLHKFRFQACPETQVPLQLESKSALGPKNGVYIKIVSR

Sequence of C-C chemokine receptor type 5 (P51681 whole entry): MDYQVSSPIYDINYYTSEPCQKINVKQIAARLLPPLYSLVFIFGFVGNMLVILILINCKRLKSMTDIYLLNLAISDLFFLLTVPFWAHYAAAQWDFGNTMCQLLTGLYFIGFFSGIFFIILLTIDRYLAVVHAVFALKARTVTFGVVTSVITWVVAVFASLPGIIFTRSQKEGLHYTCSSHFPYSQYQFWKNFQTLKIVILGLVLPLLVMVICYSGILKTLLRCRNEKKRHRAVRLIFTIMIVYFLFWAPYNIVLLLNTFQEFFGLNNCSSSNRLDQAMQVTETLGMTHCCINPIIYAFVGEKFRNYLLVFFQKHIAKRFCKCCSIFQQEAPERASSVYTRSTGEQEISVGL

Row | Structure (SMILES) | IC50 [1] | Ki [1] | IC50 [2] | Ki [2] | IC50 (Progesterone receptor) | IC50 ([3]; cho-k1) | IC50 [4] | IC50 (Thromboxane-A synthase; platelet) | IC50 (Thromboxane-A synthase; read-out: IC50) [µM] | IC50 ([3]; read-out: IC50) [µM] | Ki ([3]; read-out: Ki) [µM] | IC50 (Progesterone receptor; read-out: IC50) [µM] | Ki (Progesterone receptor; read-out: Ki) [µM]
1 | C[C@@H]1CC[C@@]2(OC1)O[C@H]1[C@@H](O)[C@H]3[C@@H]4CC[C@H]5C[C@@H](O[C@@H]6O[C@H](CO)[C@H](O[C@@H]7O[C@H](CO)C(O)[C@H](O[C@@H]8OC[C@@H](O)[C@H](O)[C@H]8O)[C@H]7O[C@@H]7O[C@H](CO)[C@H](O)[C@H](O[C@@H]8O[C@H](CO)[C@@H](O)[C@H](O)[C@H]8O)[C@H]7O)[C@H](O)[C@H]6O)[C@H](O)C[C@]5(C)[C@H]4CC[C@]3(C)[C@H]1[C@@H]2C (stereo partly drawn) [DIGITONIN] | Not Active | Not Active | Not Active | Not Active | Not Active | Not Active | Not Active | Not Active | – | – | – | – | –
2 | Oc1c(Cl)cc(Cl)c(Cl)c1Cc1c(O)c(Cl)cc(Cl)c1Cl [HEXACHLOROPHENE] | Not Active | Not Active | Not Active | Not Active | Not Active | Not Active | Not Active | – | 3.09 | – | – | – | –
3 | O=C1CN=C(c2ccccc2Cl)c2cc([N+](=O)[O-])ccc2N1 [CLONAZEPAM] | Not Active | Not Active | Not Active | Not Active | Not Active | Not Active | Not Active | Not Active | – | – | – | – | –
4 | C[C@@H](CO)NC(=O)[C@@H]1C=C2c3cccc4[nH]cc(c34)C[C@H]2N(C)C1 [ERGONOVINE] | Not Active | Not Active | Not Active | Not Active | Not Active | – | Not Active | Not Active | – | 0.00813 | 0.00464 | – | –
5 | CCn1cc(C(=O)O)c(=O)c2cnc(N3CCCC3)nc21 [PIROMIDIC ACID] | Not Active | Not Active | Not Active | Not Active | Not Active | Not Active | Not Active | Not Active | – | – | – | – | –
6 | C[C@@H]1C[C@H]2[C@@H]3CCC4=CC(=O)C=C[C@]4(C)[C@@]3(F)[C@@H](O)C[C@]2(C)[C@H]1C(=O)CO [DESOXIMETASONE] | Not Active | Not Active | Not Active | Not Active | – | Not Active | Not Active | Not Active | – | – | – | 0.084 | 0.011
7 | CN(C)CC[C@@H](c1ccc(Cl)cc1)c1ccccn1 [DEXCHLORPHENIRAMINE] | Not Active | Not Active | Not Active | Not Active | Not Active | Not Active | Not Active | Not Active | – | – | – | – | –

Reference: ChEMBL document CHEMBL1909046, “DrugMatrix in vitro pharmacology data”
